Reference: article doi:10.1101/2023.12.04.569845, “Identification of 4-(6-((2-methoxyphenyl)amino)pyrazin-2-yl)benzoic acids as CSNK2A inhibitors with antiviral activity and improved selectivity over PIM3” (bioRxiv, 2023)
Like-named read-outs stand apart in the source and are kept apart here. Values belong to the molecule of their own block, whether it stands above or below them.

Tests used:
Assay in all cases: biochemical
Set-up in all cases: Thermal shift (DSF, SYPRO Orange) Tm shift of recombinant kinase domains at 10 uM compound
CAMK4 = target: T1, CAMK4 (Homo sapiens, UniProt Q16566)
T1 sequence (Q16566 1-473): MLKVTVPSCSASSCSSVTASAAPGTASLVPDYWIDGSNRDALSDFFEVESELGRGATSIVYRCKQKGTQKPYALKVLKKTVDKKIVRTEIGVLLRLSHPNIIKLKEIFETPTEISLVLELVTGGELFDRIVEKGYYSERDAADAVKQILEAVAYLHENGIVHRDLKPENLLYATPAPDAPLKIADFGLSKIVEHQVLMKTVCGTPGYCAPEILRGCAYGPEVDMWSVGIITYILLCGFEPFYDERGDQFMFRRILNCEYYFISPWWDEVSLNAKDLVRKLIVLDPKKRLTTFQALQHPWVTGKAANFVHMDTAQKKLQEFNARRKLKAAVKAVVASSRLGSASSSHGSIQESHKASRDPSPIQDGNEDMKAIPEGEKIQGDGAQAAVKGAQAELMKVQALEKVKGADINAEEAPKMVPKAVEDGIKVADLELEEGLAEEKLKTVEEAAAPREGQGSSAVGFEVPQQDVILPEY

ULK1 = target: T2, ULK1 (Homo sapiens, UniProt O75385)
T2 sequence (O75385 1-1050): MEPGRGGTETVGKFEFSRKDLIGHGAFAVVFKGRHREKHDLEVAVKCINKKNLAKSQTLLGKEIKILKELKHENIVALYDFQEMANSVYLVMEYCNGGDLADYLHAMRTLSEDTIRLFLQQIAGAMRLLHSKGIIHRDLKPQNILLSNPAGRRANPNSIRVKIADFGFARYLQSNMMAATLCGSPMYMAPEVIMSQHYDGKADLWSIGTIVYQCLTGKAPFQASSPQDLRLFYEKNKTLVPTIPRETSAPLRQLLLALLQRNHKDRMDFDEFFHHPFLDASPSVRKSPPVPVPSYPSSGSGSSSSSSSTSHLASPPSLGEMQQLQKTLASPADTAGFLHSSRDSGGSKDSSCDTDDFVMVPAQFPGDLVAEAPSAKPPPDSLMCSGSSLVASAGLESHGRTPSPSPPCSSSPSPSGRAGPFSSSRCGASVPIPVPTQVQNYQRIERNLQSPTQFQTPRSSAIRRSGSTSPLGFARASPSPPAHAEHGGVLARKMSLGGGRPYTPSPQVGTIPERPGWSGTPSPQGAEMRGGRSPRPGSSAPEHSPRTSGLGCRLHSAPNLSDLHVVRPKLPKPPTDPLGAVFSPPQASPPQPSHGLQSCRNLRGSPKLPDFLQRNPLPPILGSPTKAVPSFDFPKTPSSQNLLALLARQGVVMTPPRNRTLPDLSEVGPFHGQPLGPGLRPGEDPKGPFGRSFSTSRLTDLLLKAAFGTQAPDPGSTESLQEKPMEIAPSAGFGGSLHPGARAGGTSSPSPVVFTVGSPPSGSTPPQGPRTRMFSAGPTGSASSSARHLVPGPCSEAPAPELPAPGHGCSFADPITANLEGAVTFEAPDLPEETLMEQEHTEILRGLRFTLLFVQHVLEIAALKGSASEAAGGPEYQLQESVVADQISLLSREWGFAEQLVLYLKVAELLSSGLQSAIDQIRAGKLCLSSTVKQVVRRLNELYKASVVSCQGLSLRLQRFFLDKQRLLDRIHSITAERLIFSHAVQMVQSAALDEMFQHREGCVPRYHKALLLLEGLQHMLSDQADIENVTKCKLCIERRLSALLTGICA

CAMK2B = CAMK2B (Homo sapiens, UniProt Q13554)
p38d = target: T3, p38d (Homo sapiens, UniProt O15264)
T3 construct: gene MAPK13
T3 sequence (O15264 1-365): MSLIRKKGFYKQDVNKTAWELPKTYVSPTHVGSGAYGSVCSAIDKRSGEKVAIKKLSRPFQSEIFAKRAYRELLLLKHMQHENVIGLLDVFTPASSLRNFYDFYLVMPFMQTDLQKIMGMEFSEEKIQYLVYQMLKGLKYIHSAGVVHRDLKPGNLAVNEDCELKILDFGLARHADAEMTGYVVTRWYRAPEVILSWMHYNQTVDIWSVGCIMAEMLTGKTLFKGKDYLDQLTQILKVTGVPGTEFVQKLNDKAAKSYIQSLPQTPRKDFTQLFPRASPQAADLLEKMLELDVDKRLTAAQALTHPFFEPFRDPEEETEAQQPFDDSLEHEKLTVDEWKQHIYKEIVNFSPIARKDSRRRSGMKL

MST2 = target: T4, MST2 (Homo sapiens, UniProt Q13188)
T4 construct: gene STK3
T4 sequence (Q13188 1-491): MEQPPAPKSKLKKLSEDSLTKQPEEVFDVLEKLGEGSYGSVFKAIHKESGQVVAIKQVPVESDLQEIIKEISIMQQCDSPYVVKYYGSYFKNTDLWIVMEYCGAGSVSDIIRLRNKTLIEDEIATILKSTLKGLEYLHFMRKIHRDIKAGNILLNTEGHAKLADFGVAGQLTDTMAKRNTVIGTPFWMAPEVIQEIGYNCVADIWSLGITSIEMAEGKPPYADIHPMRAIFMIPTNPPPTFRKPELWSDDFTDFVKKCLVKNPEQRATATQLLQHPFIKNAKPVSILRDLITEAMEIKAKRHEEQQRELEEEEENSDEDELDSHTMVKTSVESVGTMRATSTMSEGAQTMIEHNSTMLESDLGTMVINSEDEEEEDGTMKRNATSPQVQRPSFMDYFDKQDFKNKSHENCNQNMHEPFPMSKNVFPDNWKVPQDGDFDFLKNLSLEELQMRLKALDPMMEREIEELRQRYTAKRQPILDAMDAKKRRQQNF

Sequence of CAMK2B (Q13554 whole entry): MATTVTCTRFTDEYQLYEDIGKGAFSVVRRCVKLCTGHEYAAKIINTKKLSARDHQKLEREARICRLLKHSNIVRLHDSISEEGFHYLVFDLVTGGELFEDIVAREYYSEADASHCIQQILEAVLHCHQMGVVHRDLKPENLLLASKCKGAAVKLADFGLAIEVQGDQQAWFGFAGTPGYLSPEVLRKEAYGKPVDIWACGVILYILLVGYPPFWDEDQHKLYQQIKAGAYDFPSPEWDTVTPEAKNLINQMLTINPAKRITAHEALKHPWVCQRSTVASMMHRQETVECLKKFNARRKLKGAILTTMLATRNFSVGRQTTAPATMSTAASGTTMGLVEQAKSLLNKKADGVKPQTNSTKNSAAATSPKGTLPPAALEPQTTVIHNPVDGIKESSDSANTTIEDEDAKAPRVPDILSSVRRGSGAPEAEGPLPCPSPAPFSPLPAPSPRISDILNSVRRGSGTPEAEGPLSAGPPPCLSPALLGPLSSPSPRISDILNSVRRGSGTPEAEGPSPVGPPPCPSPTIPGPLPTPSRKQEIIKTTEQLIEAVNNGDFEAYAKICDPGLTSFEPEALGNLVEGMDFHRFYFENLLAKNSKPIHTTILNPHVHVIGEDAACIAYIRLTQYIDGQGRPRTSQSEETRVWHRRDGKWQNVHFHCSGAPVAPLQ

ΔTm at 10 µM (CAMK4; read-out: 7c): -1 °C
ΔTm at 10 µM (ULK1; read-out: 7c): 1 °C
ΔTm at 10 µM (CAMK2B; read-out: 7c): 1 °C
ΔTm at 10 µM (p38d; read-out: 7c): 0 °C
ΔTm at 10 µM (MST2; read-out: 7c): 2 °C
SMILES: COc1ccc(OC(C)C)cc1Nc1cncc(-c2ccc(C(=O)O)cc2)n1 [7c]

ΔTm at 10 µM (CAMK4; read-out: 6c): 0 °C
ΔTm at 10 µM (ULK1; read-out: 6c): 2 °C
ΔTm at 10 µM (CAMK2B; read-out: 6c): 2 °C
ΔTm at 10 µM (p38d; read-out: 6c): 1 °C
ΔTm at 10 µM (MST2; read-out: 6c): 3 °C
SMILES: CC(C)Oc1ccc2ccn(-c3cncc(-c4ccc(C(=O)O)cc4)n3)c2c1 [6c]

ΔTm at 10 µM (CAMK4; read-out: 2): 1 °C
ΔTm at 10 µM (ULK1; read-out: 2): 3 °C
ΔTm at 10 µM (CAMK2B; read-out: 2): 2 °C
ΔTm at 10 µM (p38d; read-out: 2): 0 °C
ΔTm at 10 µM (MST2; read-out: 2): 4 °C
SMILES: CC(C)Nc1ccc2cnn(-c3cncc(-c4ccc(C(=O)O)cc4)n3)c2c1 [compound 2, 2]
